Measurements reported in patent US20230295234A1, “ANTIMICROBIAL PEPTIDOMIMETICS” (SPEXIS AG, priority 2020, published 2023).
Bridge positions count the residues as written; N and C are the ends. Square brackets hold non-standard residues; d marks the D form. Peptide text beside a SMILES is read from it. Pro(4R-NH2) = N[C@H]1CN[C@H](C(=O)O)C1; Gly(N-2-aminoethyl) = NCCNCC(=O)O; Cha = N[C@@H](CC1CCCCC1)C(=O)O; Pen = CC(C)(S)[C@H](N)C(=O)O; dDab = NCC[C@@H](N)C(=O)O; Nle = CCCC[C@H](N)C(=O)O; Orn = NCCC[C@H](N)C(=O)O; Dab = NCC[C@H](N)C(=O)O

Tests used:
[1] = system: Escherichia coli MCR-1 Af 45; conditions: MCR-1 Af 45
Outline: (§1)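 First, bacterial colonies are suspended in saline and adjusted to 0.5 McFarland. Next, the suspension is diluted into cation-adjusted Mueller-Hinton II broth (approx. 5×10^5 CFU/mL). Finally, it is added to two-fold serially diluted peptide, with polysorbate 80 at 0.002% final.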

[2] = system: Klebsiella pneumoniae SSI3010; conditions: SSI3010
Outline: as §1

[3] = system: Escherichia coli ATCC 25922; conditions: ATCC 25922
Outline: as §1

[4] = system: human red blood cells (hRBC); experiment: Hemolysis of human red blood cells; type: cell-based; conditions: red cells of human, 1 h
Outline: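 Percent hemolysis is OD540 of peptide-treated supernatant relative to water-lysed cells. Each peptide was tested at 200 μg/mL against 20% (v/v) washed human erythrocytes. Incubation was 1 h at 37 °C, 300 rpm.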

CCCC[C@H](NC(=O)[C@H](CCCNC(=N)N)NC(=O)[C@H](CCCN)NC(=O)[C@@H]1CSSC(C)(C)[C@H](NC(=O)[C@H](Cc2ccc(O)cc2)NC(=O)[C@@H](NC(=O)[C@@H](NC(=O)CN(CCN)C(=O)[C@@H](NC(=O)CNCCN)C(C)C)[C@@H](C)CC)[C@@H](C)CC)C(=O)N[C@@H](CC(N)=O)C(=O)N[C@@H](CCCNC(=N)N)C(=O)N[C@@H](CCN)C(=O)N[C@@H]([C@@H](C)O)C(=O)N[C@H](CCN)C(=O)N[C@@H](CCCN)C(=O)N1)C(=O)O [Example 16, Ndab-Val-Ndab-Ile-Ile-Tyr-Pen-Asn-Arg-Dab-Thr-^DDab-Orn-Cys-Orn-Arg-Nle] (H-[Gly(N-2-aminoethyl)]V[Gly(N-2-aminoethyl)]IIY[Pen]NR[Dab]T[dDab][Orn]C[Orn]R[Nle]-OH; disulfide 7-14)
Escherichia coli MCR-1 Af 45 MIC [1]: 0.125 µg/mL | Klebsiella pneumoniae SSI3010 MIC [2]: 0.25 µg/mL | Escherichia coli ATCC 25922 MIC [3]: 0.125 µg/mL | Hemolysis at 0.2 g/L [4]: 0%

CC[C@H](C)[C@H](NC(=O)[C@@H](NC(=O)[C@@H]1C[C@@H](N)CN1C(=O)[C@@H](NC(=O)[C@@H]1CCCN1)C(C)C)[C@@H](C)CC)C(=O)N[C@@H](Cc1ccc(O)cc1)C(=O)N[C@@H]1C(=O)N[C@@H](CC(N)=O)C(=O)N[C@@H](CCCNC(=N)N)C(=O)N[C@@H](CCN)C(=O)N[C@@H]([C@@H](C)O)C(=O)N[C@H](CCN)C(=O)N[C@@H](CCCCN)C(=O)N[C@H](C(=O)N[C@@H](CCC(N)=O)C(=O)N[C@@H](CCCNC(=N)N)C(=O)N[C@@H](CC2CCCCC2)C(=O)O)CSSC1(C)C [Example 17, Pro-Val-Pro((4R)NH2)-Ile-Ile-Tyr-Pen-Asn-Arg-Dab-Thr-^DDab-Lys-Cys-Gln-Arg-Cha] (HELM PEPTIDE1{P.V.[N[C@@H]1C[C@@H](C(=O)[*:2])N([*:1])C1].I.I.Y.[Pen].N.R.[Dab].T.[NCC[C@@H](N[*:1])C(=O)[*:2]].K.C.Q.R.[Cha]}$PEPTIDE1,PEPTIDE1,7:R3-14:R3$$$V2.0)
Escherichia coli MCR-1 Af 45 MIC [1]: 0.125 µg/mL | Klebsiella pneumoniae SSI3010 MIC [2]: 0.25 µg/mL | Escherichia coli ATCC 25922 MIC [3]: 0.125 µg/mL | Hemolysis at 0.2 g/L [4]: 0%

CC[C@H](C)[C@H](NC(=O)[C@@H](NC(=O)[C@@H]1C[C@@H](N)CN1C(=O)[C@@H](NC(=O)[C@@H]1C[C@@H](N)CN1)C(C)C)[C@@H](C)CC)C(=O)N[C@@H](Cc1ccc(O)cc1)C(=O)N[C@@H]1C(=O)N[C@@H](CC(N)=O)C(=O)N[C@@H](CCCNC(=N)N)C(=O)N[C@@H](CCN)C(=O)N[C@@H]([C@@H](C)O)C(=O)N[C@H](CCN)C(=O)N[C@@H](CCCCN)C(=O)N[C@H](C(=O)N[C@@H](CCC(N)=O)C(=O)N[C@@H](CCCNC(=N)N)C(=O)N[C@@H](CC2CCCCC2)C(=O)O)CSSC1(C)C [Example 18, Pro((4R)NH2)-Val-Pro((4R)NH2)-Ile-Ile-Tyr-Pen-Asn-Arg-Dab-Thr-^DDab-Lys-Cys-Gln-Arg-Cha] (H-[Pro(4R-NH2)]V[Pro(4R-NH2)]IIY[Pen]NR[Dab]T[dDab]KCQR[Cha]-OH; disulfide 7-14)
Escherichia coli MCR-1 Af 45 MIC [1]: 0.125 µg/mL | Klebsiella pneumoniae SSI3010 MIC [2]: 0.25 µg/mL | Escherichia coli ATCC 25922 MIC [3]: 0.25 µg/mL | Hemolysis at 0.2 g/L [4]: 0%
